Earlier results in patent publication US4535248A, “Method for detecting aflatoxin in almonds” (priority 1984, dated 1985).

Tested on: rats
Details: for estimated effective dose, hepatocarcinogens (for comparison): similar estimates for other hepatocarcinogens

SMILES | effective dose for the induction of liver tumors (rat, in vivo) | estimated effective dose, hepatocarcinogens (for comparison)
COc1cc2c(c3oc(=O)c4c(c13)CCC4=O)[C@@H]1C=CO[C@@H]1O2 [B1] | approximately 10 mg per day | 
CN(C)c1ccc(N=Nc2ccccc2)cc1 [butteryellow] |  | 9,000 mg/day
CN(C)N=O [dimethylnitrosamine] |  | 750 mg/day
